Test results from patent publication US9085555B2, “Complement pathway modulators and uses thereof” (priority 2011, dated 2015).

What follows are compounds tested against Factor D (Homo sapiens (Human), UniProt P00746) (assay: biochemical). Settings: read-out: IC50.
Chain of Factor D (P00746 26-253): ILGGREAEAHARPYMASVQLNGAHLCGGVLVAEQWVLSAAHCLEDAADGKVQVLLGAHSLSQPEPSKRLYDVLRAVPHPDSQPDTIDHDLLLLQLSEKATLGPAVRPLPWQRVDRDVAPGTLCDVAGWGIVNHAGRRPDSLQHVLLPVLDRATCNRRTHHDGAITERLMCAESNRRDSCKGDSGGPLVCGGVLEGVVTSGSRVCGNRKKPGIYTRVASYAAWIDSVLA
Type: biochemical
With `NC(=O)c1cn(CC(=O)N2C[C@H](F)C[C@H]2C(=O)NCc2cccc(Cl)c2F)c2ccccc12` [Example 476, 1-{2-[(2S,4R)-2-(3-Chloro-2-fluoro-benzylcarbamoyl)-4-fluoro-pyrrolidin-1-yl]-2-oxo-ethyl}-1H-indole-3-carboxylic acid amide] the IC50 was 33 nM.
Work on `COc1cccc2c(C(N)=O)cn(CC(=O)N3C[C@H](F)C[C@H]3C(=O)NCc3cccc(Cl)c3F)c12` [Example 477, 1-{2-[(2S,4R)-2-(3-Chloro-2-fluoro-benzylcarbamoyl)-4-fluoro-pyrrolidin-1-yl]-2-oxo-ethyl}-7-methoxy-1H-indole-3-carboxylic acid amide] yielded an IC50 of 628 nM.
Compound `CC(=O)c1cn(CC(=O)N2CCCC[C@H]2C(=O)NCc2cccc(Cl)c2F)c2ccccc12` [Example 478, (S)-1-[2-(3-Acetyl-indol-1-yl)-acetyl]-piperidine-2-carboxylic acid 3-chloro-2-fluoro-benzylamide] has an IC50 of 258 nM.
Compound `NC(=O)c1cn(CC(=O)N2C[C@H](F)C[C@H]2C(=O)NCc2cccc(Cl)c2F)c2cc(Br)c(F)cc12` [Example 479, 6-Bromo-1-{2-[(2S,4R)-2-(3-chloro-2-fluoro-benzylcarbamoyl)-4-fluoro-pyrrolidin-1-yl]-2-oxo-ethyl}-5-fluoro-1H-indole-3-carboxylic acid amide] has an IC50 of 89 nM.
`NC(=O)c1cn(CC(=O)N2C[C@H](F)C[C@H]2C(=O)NCc2cccc(Br)c2F)c2ccccc12` [Example 481, 1-{2-[(2S,4R)-2-(3-Bromo-2-fluoro-benzylcarbamoyl)-4-fluoro-pyrrolidin-1-yl]-2-oxo-ethyl}-1H-indole-3-carboxylic acid amide] was tested, and the IC50 was 22 nM.
For `CC(=O)c1cn(CC(=O)N2C[C@](C)(F)C[C@H]2C(=O)NCc2cccc(Cl)c2F)c2cnccc12` [Example 482, (2S,4R)-1-[2-(3-Acetyl-pyrrolo[2,3-c]pyridin-1-yl)-acetyl]-4-fluoro-4-methyl-pyrrolidine-2-carboxylic acid 3-chloro-2-fluoro-benzylamide], the IC50 was 188 nM.
Work on `CC(=O)c1cn(CC(=O)N2[C@@H]3C[C@@H]3C[C@H]2C(=O)NCc2cccc(Cl)c2F)c2ncccc12` [Example 483, (1R,3S,5R)-2-[2-(3-Acetyl-pyrrolo[2,3-b]pyridin-1-yl)-acetyl]-2-aza-bicyclo[3.1.0]hexane-3-carboxylic acid 3-chloro-2-fluoro-benzylamide] yielded an IC50 of 60 nM.
`CC(=O)c1cn(CC(=O)N2[C@@H]3C[C@@H]3C[C@H]2C(=O)NCc2ccc(Cl)s2)c2ncccc12` [Example 484, (1R,3S,5R)-2-[2-(3-Acetyl-pyrrolo[2,3-b]pyridin-1-yl)-acetyl]-2-aza-bicyclo[3.1.0]hexane-3-carboxylic acid (5-chloro-thiophen-2-ylmethyl)-amide] gave an IC50 of 358 nM.
In the case of `COc1ccc2c(c1)c(C(C)=O)cn2CC(=O)N1C[C@H](F)[C@@H](OC)[C@H]1C(=O)NCc1cccc(Cl)c1F` [Example 485, (2S,3S,4S)-1-[2-(3-Acetyl-5-methoxy-indol-1-yl)-acetyl]-4-fluoro-3-methoxy-pyrrolidine-2-carboxylic acid 3-chloro-2-fluoro-benzylamide], the IC50 is reported as 15 nM.
With `NC(=O)c1cn(CC(=O)N2C[C@H](F)C[C@H]2C(=O)Nc2cccc(Cl)c2F)c2ccccc12` [Example 486, 1-{2-[(2S,4R)-2-(3-Chloro-2-fluoro-phenylcarbamoyl)-4-fluoro-pyrrolidin-1-yl]-2-oxo-ethyl}-1H-indole-3-carboxylic acid amide] the IC50 was 2450 nM.
With `COc1ccc2c(C(C)=O)cn(CC(=O)N3C[C@H](F)[C@@H](OC)[C@H]3C(=O)NCc3cccc(Cl)c3F)c2c1` [Example 487, (2S,3S,4S)-1-[2-(3-Acetyl-6-methoxy-indol-1-yl)-acetyl]-4-fluoro-3-methoxy-pyrrolidine-2-carboxylic acid 3-chloro-2-fluoro-benzylamide] the IC50 was 13 nM.
